Results published in patent US7550471B2, “5-alkyl-7-aminotriazolopyrimidines, methods and intermediary product necessary for the production thereof, agents containing said compounds and the use thereof for fighting against harmful mushrooms” (BASF Aktiengesellschaft, priority 2002, dated 2009).

System: Alternaria solani
Assay: Activity against early blight of tomato caused by Alternaria solani
Format: in vivo
Details: 250 ppm active compound, tomato plants sprayed one day before infection, assessed after 5 days; untreated plants 90% infected
Procedure: The active compounds were formulated separately as a stock solution comprising 0.25% by weight of active compound in acetone or DMSO. 1% by weight of the emulsifier Uniperol® EL (wetting agent having emulsifying and dispersing action based on ethoxylated alkylphenols) was added to this solution. The stock solutions of the active compounds were diluted with water to the stated concentration. Leafs of potted plants of the cultivar “Groβe Fleischtomate St. Pierre” were sprayed to run off point with an aqueous suspension having the concentration of active compound stated below. The next day, the leaves were infected with an aqueous spore suspension of Alternaria solani in a 2% strength biomalt solution of a density of 0.17×10^6 spores/ml. The plants were then placed in a water-vapor-saturated chamber at 20-22° C. After 5 days, the early blight on the untreated but infected control plants had developed to such an extent that the infection could be determined visually in %.

Cc1nc2ncnn2c(N2CCC(C)CC2)c1C1CCCC1 [Compound I-1, 5-methyl-6-cyclopentyl-7-(4-methyl-piperidin-1-yl)-[1,2,4]triazolo[1,5-a]pyrimidine]
infection (early blight, determined visually in %): no infection
